{"source": "ChEMBL document CHEMBL1153791", "about": "“Acylphloroglucinol, biyouyanagiol, biyouyanagin B, and related spiro-lactones from Hypericum chinense” (J Nat Prod, 2009)", "assay_type_in_all_cases": "functional, cell-based", "key": {"MCF7": {"tested_on": "MCF7", "assay": "Cytotoxicity against human MCF7 cells after 48 hrs by MTT assay", "details": "MCF7, 48 h"}, "K562 [1]": {"tested_on": "K562", "assay": "Cytotoxicity against human doxorubicin-resistant K562 cells after 48 hrs by MTT assay", "details": "K562, 48 h"}, "[2]": {"assay": "Cytotoxicity against human multidrug resistant KB-C2 cells after 48 hrs by MTT assay in the presence of colchicine", "details": "KB-C2, 48 h"}, "[3]": {"assay": "Cytotoxicity against human multidrug resistant KB-C2 cells after 48 hrs by MTT assay", "details": "KB-C2, 48 h"}, "KB": {"tested_on": "KB", "assay": "Cytotoxicity against human KB cells after 48 hrs by MTT assay"}, "COLO 205": {"tested_on": "COLO 205", "assay": "Cytotoxicity against human COLO205 cells after 48 hrs by MTT assay", "details": "COLO 205, 48 h"}, "K562 [4]": {"tested_on": "K562", "assay": "Cytotoxicity against human K562 cells after 48 hrs by MTT assay", "details": "K562, 48 h"}}, "data": [{"compound": "C=C[C@@]1(C)COC(=O)[C@]12OC(c1ccccc1)=CC2=O", "note": "[HYPERLACTONE C]", "values": [{"measurement": "IC50", "setting": "MCF7", "result": 77.7, "unit": "µg/mL"}, {"measurement": "IC50", "setting": "K562 [1]", "result": 32.8, "unit": "µg/mL"}, {"measurement": "IC50", "setting": "[2]", "result": 51.8, "unit": "µg/mL"}, {"measurement": "IC50", "setting": "[3]", "result": "> 100", "unit": "µg/mL"}, {"measurement": "IC50", "setting": "KB", "result": "> 100", "unit": "µg/mL"}, {"measurement": "IC50", "setting": "COLO 205", "result": 58.5, "unit": "µg/mL"}, {"measurement": "IC50", "setting": "K562 [4]", "result": "> 100", "unit": "µg/mL"}]}, {"compound": "C=C[C@@]1(C)COC(=O)C1C(=O)/C=C(\\O)c1ccccc1", "note": "(some centres undefined) [HYPERLACTONE D]", "values": [{"measurement": "IC50", "setting": "MCF7", "result": 52.9, "unit": "µg/mL"}, {"measurement": "IC50", "setting": "K562 [1]", "result": 20, "unit": "µg/mL"}, {"measurement": "IC50", "setting": "[2]", "result": 24.6, "unit": "µg/mL"}, {"measurement": "IC50", "setting": "[3]", "result": 22.3, "unit": "µg/mL"}, {"measurement": "IC50", "setting": "KB", "result": 61, "unit": "µg/mL"}, {"measurement": "IC50", "setting": "COLO 205", "result": 37.5, "unit": "µg/mL"}, {"measurement": "IC50", "setting": "K562 [4]", "result": 47.8, "unit": "µg/mL"}]}, {"compound": "C=C[C@@]1(C)COC(=O)C1(O)C(=O)/C=C(\\O)c1ccccc1", "note": "(some centres undefined)", "values": [{"measurement": "IC50", "setting": "MCF7", "result": 62.1, "unit": "µg/mL"}, {"measurement": "IC50", "setting": "K562 [1]", "result": 33.7, "unit": "µg/mL"}, {"measurement": "IC50", "setting": "[2]", "result": 53.1, "unit": "µg/mL"}, {"measurement": "IC50", "setting": "[3]", "result": "> 100", "unit": "µg/mL"}, {"measurement": "IC50", "setting": "KB", "result": "> 100", "unit": "µg/mL"}, {"measurement": "IC50", "setting": "COLO 205", "result": 79, "unit": "µg/mL"}, {"measurement": "IC50", "setting": "K562 [4]", "result": "> 100", "unit": "µg/mL"}]}, {"compound": "COC(=O)[C@@]1(O)C(=O)[C@](C)(CC=C(C)C)C(=O)C12C[C@H]1[C@@H](CC[C@@]1(C)O)[C@@](C)(O)C2", "note": "(some centres undefined) [BIYOUYANAGIOL]", "values": [{"measurement": "IC50", "setting": "MCF7", "result": "> 100", "unit": "µg/mL"}, {"measurement": "IC50", "setting": "K562 [1]", "result": "> 100", "unit": "µg/mL"}, {"measurement": "IC50", "setting": "[2]", "result": 47.8, "unit": "µg/mL"}, {"measurement": "IC50", "setting": "[3]", "result": "> 100", "unit": "µg/mL"}, {"measurement": "IC50", "setting": "KB", "result": "> 100", "unit": "µg/mL"}, {"measurement": "IC50", "setting": "COLO 205", "result": "> 100", "unit": "µg/mL"}, {"measurement": "IC50", "setting": "K562 [4]", "result": "> 100", "unit": "µg/mL"}]}, {"compound": "C=C[C@@]1(C)COC(=O)[C@]12O[C@]1(c3ccccc3)[C@H](C2=O)[C@H]2[C@H]([C@H](C)CCC=C(C)C)CC=C(C)[C@H]21", "note": "[BIYOUYANAGIN A]", "values": [{"measurement": "IC50", "setting": "MCF7", "result": 27.1, "unit": "µg/mL"}, {"measurement": "IC50", "setting": "K562 [1]", "result": 16.6, "unit": "µg/mL"}, {"measurement": "IC50", "setting": "[2]", "result": 16.8, "unit": "µg/mL"}, {"measurement": "IC50", "setting": "[3]", "result": 36.2, "unit": "µg/mL"}, {"measurement": "IC50", "setting": "KB", "result": 38.8, "unit": "µg/mL"}, {"measurement": "IC50", "setting": "COLO 205", "result": 26.9, "unit": "µg/mL"}, {"measurement": "IC50", "setting": "K562 [4]", "result": 31.1, "unit": "µg/mL"}]}, {"compound": "COc1cc(/C=C/C(=O)OC[C@H](Cc2ccc(O)c(OC)c2)[C@H](CO)Cc2ccc(O)c(OC)c2)ccc1O", "note": "[HANULTARIN]", "values": [{"measurement": "IC50", "setting": "MCF7", "result": 18.9, "unit": "µg/mL"}, {"measurement": "IC50", "setting": "K562 [1]", "result": 33.1, "unit": "µg/mL"}, {"measurement": "IC50", "setting": "[2]", "result": 20.9, "unit": "µg/mL"}, {"measurement": "IC50", "setting": "[3]", "result": 20.7, "unit": "µg/mL"}, {"measurement": "IC50", "setting": "KB", "result": 33.7, "unit": "µg/mL"}, {"measurement": "IC50", "setting": "COLO 205", "result": 16.8, "unit": "µg/mL"}, {"measurement": "IC50", "setting": "K562 [4]", "result": 35.2, "unit": "µg/mL"}]}, {"compound": "COc1cccc2c1C(=O)c1c(O)c3c(c(O)c1C2=O)C[C@@](O)(C(C)=O)C[C@@H]3O[C@H]1C[C@H](N)[C@H](O)[C@H](C)O1", "note": "[DAUNORUBICIN]", "values": [{"measurement": "IC50", "setting": "MCF7", "result": 0.33, "unit": "µg/mL"}, {"measurement": "IC50", "setting": "K562 [1]", "result": 15.2, "unit": "µg/mL"}, {"measurement": "IC50", "setting": "[3]", "result": "> 100", "unit": "µg/mL"}, {"measurement": "IC50", "setting": "KB", "result": 0.22, "unit": "µg/mL"}, {"measurement": "IC50", "setting": "COLO 205", "result": 0.5, "unit": "µg/mL"}, {"measurement": "IC50", "setting": "K562 [4]", "result": 0.45, "unit": "µg/mL"}]}, {"compound": "OC[C@H]1[C@@H](Cc2ccc3c(c2)OCO3)CO[C@@H]1c1ccc2c(c1)OCO2", "note": "[DIHYDROSESAMIN]", "values": [{"measurement": "IC50", "setting": "MCF7", "result": 62.1, "unit": "µg/mL"}, {"measurement": "IC50", "setting": "K562 [1]", "result": 33.7, "unit": "µg/mL"}, {"measurement": "IC50", "setting": "[2]", "result": 53.1, "unit": "µg/mL"}, {"measurement": "IC50", "setting": "[3]", "result": "> 100", "unit": "µg/mL"}, {"measurement": "IC50", "setting": "KB", "result": "> 100", "unit": "µg/mL"}, {"measurement": "IC50", "setting": "COLO 205", "result": 79, "unit": "µg/mL"}, {"measurement": "IC50", "setting": "K562 [4]", "result": "> 100", "unit": "µg/mL"}]}, {"compound": "C=C[C@@]1(C)COC(=O)[C@]12OC([C@H](C)CC)=CC2=O", "note": "[HYPERLACTONE A]", "values": [{"measurement": "IC50", "setting": "MCF7", "result": "> 100", "unit": "µg/mL"}, {"measurement": "IC50", "setting": "K562 [1]", "result": 47.1, "unit": "µg/mL"}, {"measurement": "IC50", "setting": "[2]", "result": 70.8, "unit": "µg/mL"}, {"measurement": "IC50", "setting": "[3]", "result": "> 100", "unit": "µg/mL"}, {"measurement": "IC50", "setting": "KB", "result": "> 100", "unit": "µg/mL"}, {"measurement": "IC50", "setting": "COLO 205", "result": "> 100", "unit": "µg/mL"}, {"measurement": "IC50", "setting": "K562 [4]", "result": "> 100", "unit": "µg/mL"}]}, {"compound": "COc1cc(/C=C/C(=O)OC[C@H](Cc2ccc(O)c(OC)c2)[C@H](COC(=O)/C=C/c2ccc(O)c(OC)c2)Cc2ccc(O)c(OC)c2)ccc1O", "values": [{"measurement": "IC50", "setting": "MCF7", "result": 5.9, "unit": "µg/mL"}, {"measurement": "IC50", "setting": "K562 [1]", "result": 19.9, "unit": "µg/mL"}, {"measurement": "IC50", "setting": "[2]", "result": 4.5, "unit": "µg/mL"}, {"measurement": "IC50", "setting": "[3]", "result": 9.4, "unit": "µg/mL"}, {"measurement": "IC50", "setting": "KB", "result": 14.1, "unit": "µg/mL"}, {"measurement": "IC50", "setting": "COLO 205", "result": 5.2, "unit": "µg/mL"}, {"measurement": "IC50", "setting": "K562 [4]", "result": 17.3, "unit": "µg/mL"}]}]}
